The assay has as its target T1, NPR-B (Mus musculus, UniProt Q6VVW5).
T1 construct: Murine NIH3T3 cells express endogenously the CNP signaling receptor, NPR-B; endogenous in cells; host or cells: NIH3T3 (murine fibroblasts)
T1 sequence (Q6VVW5 17-1047): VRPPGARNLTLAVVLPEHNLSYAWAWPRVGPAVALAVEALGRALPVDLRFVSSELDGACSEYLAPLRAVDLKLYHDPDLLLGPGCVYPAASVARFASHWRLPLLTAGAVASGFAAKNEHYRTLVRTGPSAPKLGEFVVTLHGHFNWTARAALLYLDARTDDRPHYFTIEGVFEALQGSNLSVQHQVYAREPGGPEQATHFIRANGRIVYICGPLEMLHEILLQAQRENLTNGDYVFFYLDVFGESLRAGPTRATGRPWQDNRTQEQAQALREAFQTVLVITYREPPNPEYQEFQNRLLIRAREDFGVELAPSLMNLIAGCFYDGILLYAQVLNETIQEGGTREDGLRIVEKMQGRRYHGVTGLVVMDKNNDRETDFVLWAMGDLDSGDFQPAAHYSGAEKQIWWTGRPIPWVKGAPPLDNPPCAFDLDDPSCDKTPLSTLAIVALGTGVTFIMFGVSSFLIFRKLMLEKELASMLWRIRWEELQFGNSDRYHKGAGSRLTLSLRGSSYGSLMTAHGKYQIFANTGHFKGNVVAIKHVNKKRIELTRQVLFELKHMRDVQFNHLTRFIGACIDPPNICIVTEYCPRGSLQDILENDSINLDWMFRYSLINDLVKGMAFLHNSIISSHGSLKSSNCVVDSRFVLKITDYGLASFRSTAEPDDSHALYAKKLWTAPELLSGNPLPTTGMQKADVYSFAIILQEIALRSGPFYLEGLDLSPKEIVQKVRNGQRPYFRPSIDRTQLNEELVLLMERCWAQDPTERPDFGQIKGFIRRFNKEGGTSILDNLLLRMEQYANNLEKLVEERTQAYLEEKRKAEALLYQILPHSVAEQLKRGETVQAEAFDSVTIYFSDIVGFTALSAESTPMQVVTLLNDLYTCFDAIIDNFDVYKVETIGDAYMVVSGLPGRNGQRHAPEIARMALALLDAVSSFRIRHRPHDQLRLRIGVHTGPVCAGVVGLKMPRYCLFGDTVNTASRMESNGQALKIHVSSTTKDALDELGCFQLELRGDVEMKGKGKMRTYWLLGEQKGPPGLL
The experiment in a line: Stimulation of cGMP production in NIH3T3 cells. It is filed as cell-based, Murine. The note with it: NIH3T3 cells, normalized to cell number and cGMP production with 1 uM wtCNP22; for cGMP response relative to 1 uM CNP22 (%) at 0.01 µM: 10 nM natriuretic peptide, read-out: cGMP Response rel. to 1 uM CNP22, 10 nM; for cGMP response relative to 1 uM CNP22 (%) at 1 µM: 1 uM natriuretic peptide, read-out: cGMP Response rel. to 1 uM CNP22, 1 uM.

Bridge positions count the residues as written; N and C are the ends. Peptide text beside a SMILES is read from it.

Consider `CC[C@H](C)[C@@H]1NC(=O)[C@H](CCCNC(=N)N)NC(=O)[C@H](CC(=O)O)NC(=O)[C@H](CC(C)C)NC(=O)[C@H](CCC(N)=O)NC(=O)[C@H](CC(C)C)NC(=O)CNC(=O)[C@H](Cc2ccccc2)NC(=O)[C@@H](NC(=O)CNC(=O)[C@H](CCCNC(=N)N)NC(=O)[C@H](CO)NC(=O)[C@H](CC(C)C)NC(=O)CN)CSSC[C@@H](C(=O)O)NC(=O)CNC(=O)[C@H](CC(C)C)NC(=O)CNC(=O)[C@H](CO)NC(=O)[C@H](CCSC)NC(=O)[C@H](CO)NC(=O)CNC1=O` [BG] (H-GLSRGCFGLQLDRIGSMSGLGC-OH; disulfide 6-22), for which the cGMP response relative to 1 uM CNP22 (%) at 0.01 µM was determined as 9% and the cGMP response relative to 1 uM CNP22 (%) at 1 µM came out at 45%.

Regarding `CC[C@H](C)[C@@H]1NC(=O)[C@H](CCCNC(=N)N)NC(=O)[C@H](CC(=O)O)NC(=O)[C@H](CC(C)C)NC(=O)[C@H](CCCNC(=N)N)NC(=O)[C@H](CC(C)C)NC(=O)CNC(=O)[C@H](Cc2ccccc2)NC(=O)[C@@H](NC(=O)CNC(=O)[C@H](CCCNC(=N)N)NC(=O)[C@H](CO)NC(=O)[C@H](CC(C)C)NC(=O)CN)CSSC[C@@H](C(=O)O)NC(=O)CNC(=O)[C@H](CC(C)C)NC(=O)CNC(=O)[C@H](CO)NC(=O)[C@H](CCSC)NC(=O)[C@H](CO)NC(=O)CNC1=O` [BH] (H-GLSRGCFGLRLDRIGSMSGLGC-OH; disulfide 6-22), the cGMP response relative to 1 uM CNP22 (%) at 0.01 µM is 12% and the cGMP response relative to 1 uM CNP22 (%) at 1 µM worked out at 80%.

As for `CC[C@H](C)[C@@H]1NC(=O)[C@H](CCCNC(=N)N)NC(=O)[C@H](CC(=O)O)NC(=O)[C@H](CC(C)C)NC(=O)[C@H](CCCCN)NC(=O)[C@H](CC(C)C)NC(=O)CNC(=O)[C@H](Cc2ccccc2)NC(=O)[C@@H](NC(=O)CNC(=O)[C@H](CCCNC(=N)N)NC(=O)[C@H](CO)NC(=O)[C@H](CC(C)C)NC(=O)CNC(=O)[C@H](CCC(N)=O)NC(=O)[C@H](CCC(N)=O)NC(=O)[C@H](CC(N)=O)NC(=O)[C@H](C)NC(=O)CN)CSSC[C@@H](C(=O)O)NC(=O)CNC(=O)[C@H](CC(C)C)NC(=O)CNC(=O)[C@H](CO)NC(=O)[C@H](CCSC)NC(=O)[C@H](CO)NC(=O)CNC1=O` [CH] (H-GANQQGLSRGCFGLKLDRIGSMSGLGC-OH; disulfide 11-27 (inferred); N-terminus and C-terminus assumed), the cGMP response relative to 1 uM CNP22 (%) at 0.01 µM is 44 ± 8% and the cGMP response relative to 1 uM CNP22 (%) at 1 µM amounted to 95 ± 11%.

With `CC[C@H](C)[C@@H]1NC(=O)[C@H](CCCNC(=N)N)NC(=O)[C@H](CC(=O)O)NC(=O)[C@H](CC(C)C)NC(=O)[C@H](CCCCN)NC(=O)[C@H](CC(C)C)NC(=O)CNC(=O)[C@H](Cc2ccccc2)NC(=O)[C@@H](NC(=O)CNC(=O)[C@H](CCCNC(=N)N)NC(=O)[C@H](CO)NC(=O)[C@H](CC(C)C)NC(=O)CNC(=O)[C@H](CCCNC(=N)N)NC(=O)[C@@H]2CCCN2C(=O)[C@H](CC(N)=O)NC(=O)[C@H](C)NC(=O)CN)CSSC[C@@H](C(=O)O)NC(=O)CNC(=O)[C@H](CC(C)C)NC(=O)CNC(=O)[C@H](CO)NC(=O)[C@H](CCSC)NC(=O)[C@H](CO)NC(=O)CNC1=O` [CI] (H-GANPRGLSRGCFGLKLDRIGSMSGLGC-OH; disulfide 11-27 (inferred); N-terminus and C-terminus assumed), the cGMP response relative to 1 uM CNP22 (%) at 0.01 µM worked out at 50 ± 1% and the cGMP response relative to 1 uM CNP22 (%) at 1 µM turned out to be 105 ± 12%.
